Tests used:
[1] = molecular target: CDK7/Cyclin H/MAT1 complex (Homo sapiens, UniProt P50613); assay: CDK7 kinase inhibition assay (Caliper/LabChip EZ Reader); assay type: biochemical; settings: CDK7/Cyclin H/MAT1 6 nM, ATP 2 mM, 35 min at 27° C.
Method in brief: (§1)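 Incubation times were set for ~20% (±5%) peptide phosphorylation by uninhibited enzyme: CDK7 35 min, CDK2 35 min (0.5 nM complex, 2 μM 5-FAM-CDK7tide, 2 mM MgCl2), CDK12 3 hr (50 nM, 2 μM 5-FAM-CDK9tide, 2 mM MgCl2), CDK9 15 min (8 nM, 2 μM 5-FAM-CDK9tide, 10 mM MgCl2). Read-out on LabChip EZ Reader, 27° C.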

CDK2/Cyclin E1 complex = CDK2/Cyclin E1 complex (Homo sapiens, UniProt P24941); assay: CDK2 kinase inhibition assay (Caliper/LabChip EZ Reader); assay type: biochemical; settings: CDK2/Cyclin E1 0.5 nM, ATP 2 mM, 35 min at 27° C.
Method in brief: as §1

A673 cells = assay: Inhibition of proliferation of A673 cells (CyQUANT, 72 hour); assay type: cell-based, human; settings: read-out: Inhibition of Proliferation of A673 Cells (calculated IC50)
Method in brief: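 Read-out is CyQUANT after a 72 h proliferation period, following the kit protocol. Dilution series in 0.5-log steps over the stated 4 μM to […] range. Cells are A673 (human Ewing's sarcoma), grown in DMEM with 10% FBS and 1 mM sodium pyruvate at 37 °C under 5% CO2.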

CDK9/Cyclin T1 complex = CDK9/Cyclin T1 complex (Homo sapiens, UniProt P50750); assay: CDK9 kinase inhibition assay (Caliper/LabChip EZ Reader); assay type: biochemical; settings: CDK9/Cyclin T1 8 nM, ATP 2 mM, 15 min at 27° C.
Method in brief: as §1

[2] = molecular target: T1, CDK12 (aa686-1082)/Cyclin K complex (Homo sapiens, UniProt Q9NYV4); assay: CDK12 kinase inhibition assay (Caliper/LabChip EZ Reader); assay type: biochemical; settings: CDK12 (aa686-1082)/Cyclin K 50 nM, ATP 2 mM, 3 hr at 27° C.
T1 construct: CDK12 (aa686-1082)/Cyclin K complex
Method in brief: as §1

HCC70 cells = assay: Inhibition of proliferation of HCC70 cells (CyQUANT Direct, 72 hour); assay type: cell-based, human; settings: read-out: Inhibition of Proliferation of HCC70 Cells (calculated IC50)
Method in brief: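 Anti-proliferative effect measured with the CyQUANT Direct kit after a 72 h exposure at 37 °C, 5% CO2. Compounds were tested at 0.5 log serial dilutions spanning 4–[…] on HCC70 triple-negative breast cancer cells cultured in RPMI-1640 with 10% FBS.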

Chain of CDK7/Cyclin H/MAT1 complex (P50613 whole entry): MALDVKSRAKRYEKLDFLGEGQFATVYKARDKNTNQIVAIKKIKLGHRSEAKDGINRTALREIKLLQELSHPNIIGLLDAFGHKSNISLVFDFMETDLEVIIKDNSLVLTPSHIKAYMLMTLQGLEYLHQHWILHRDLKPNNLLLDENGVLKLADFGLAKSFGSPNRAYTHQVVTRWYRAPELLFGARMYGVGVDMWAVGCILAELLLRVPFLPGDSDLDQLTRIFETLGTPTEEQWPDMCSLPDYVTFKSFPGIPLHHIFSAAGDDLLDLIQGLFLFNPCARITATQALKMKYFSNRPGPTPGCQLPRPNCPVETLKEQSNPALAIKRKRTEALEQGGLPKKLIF
Chain of CDK7/Cyclin H/MAT1 complex (P51946 whole entry partner): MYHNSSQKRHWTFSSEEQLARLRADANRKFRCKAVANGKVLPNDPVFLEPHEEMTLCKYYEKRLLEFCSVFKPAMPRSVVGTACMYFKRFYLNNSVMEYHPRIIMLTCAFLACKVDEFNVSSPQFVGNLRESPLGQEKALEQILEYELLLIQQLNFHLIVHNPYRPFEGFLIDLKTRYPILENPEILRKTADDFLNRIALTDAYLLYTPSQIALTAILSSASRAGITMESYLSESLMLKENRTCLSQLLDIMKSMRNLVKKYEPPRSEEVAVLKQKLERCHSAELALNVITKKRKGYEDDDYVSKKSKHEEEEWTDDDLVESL
Chain of CDK7/Cyclin H/MAT1 complex (P51948 whole entry partner): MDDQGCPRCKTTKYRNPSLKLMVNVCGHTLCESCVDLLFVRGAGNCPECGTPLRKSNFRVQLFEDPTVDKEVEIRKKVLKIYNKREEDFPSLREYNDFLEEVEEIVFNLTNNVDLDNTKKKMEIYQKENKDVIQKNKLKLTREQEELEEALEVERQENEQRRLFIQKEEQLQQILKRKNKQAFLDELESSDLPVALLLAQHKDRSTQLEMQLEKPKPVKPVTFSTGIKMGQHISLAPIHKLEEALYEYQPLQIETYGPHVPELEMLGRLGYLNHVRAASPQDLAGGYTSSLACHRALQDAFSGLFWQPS
Chain of CDK9/Cyclin T1 complex (P50750 whole entry): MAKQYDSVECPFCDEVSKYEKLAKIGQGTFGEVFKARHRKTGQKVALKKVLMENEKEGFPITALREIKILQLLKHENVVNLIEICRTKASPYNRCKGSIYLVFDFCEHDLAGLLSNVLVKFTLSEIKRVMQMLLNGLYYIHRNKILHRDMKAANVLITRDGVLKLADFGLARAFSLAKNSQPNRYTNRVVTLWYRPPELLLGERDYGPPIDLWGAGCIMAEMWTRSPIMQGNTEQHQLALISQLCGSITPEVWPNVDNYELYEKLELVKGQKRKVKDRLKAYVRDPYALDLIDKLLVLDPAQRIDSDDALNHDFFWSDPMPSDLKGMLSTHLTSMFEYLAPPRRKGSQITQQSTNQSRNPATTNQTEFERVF
Chain of CDK9/Cyclin T1 complex (O60563 whole entry partner): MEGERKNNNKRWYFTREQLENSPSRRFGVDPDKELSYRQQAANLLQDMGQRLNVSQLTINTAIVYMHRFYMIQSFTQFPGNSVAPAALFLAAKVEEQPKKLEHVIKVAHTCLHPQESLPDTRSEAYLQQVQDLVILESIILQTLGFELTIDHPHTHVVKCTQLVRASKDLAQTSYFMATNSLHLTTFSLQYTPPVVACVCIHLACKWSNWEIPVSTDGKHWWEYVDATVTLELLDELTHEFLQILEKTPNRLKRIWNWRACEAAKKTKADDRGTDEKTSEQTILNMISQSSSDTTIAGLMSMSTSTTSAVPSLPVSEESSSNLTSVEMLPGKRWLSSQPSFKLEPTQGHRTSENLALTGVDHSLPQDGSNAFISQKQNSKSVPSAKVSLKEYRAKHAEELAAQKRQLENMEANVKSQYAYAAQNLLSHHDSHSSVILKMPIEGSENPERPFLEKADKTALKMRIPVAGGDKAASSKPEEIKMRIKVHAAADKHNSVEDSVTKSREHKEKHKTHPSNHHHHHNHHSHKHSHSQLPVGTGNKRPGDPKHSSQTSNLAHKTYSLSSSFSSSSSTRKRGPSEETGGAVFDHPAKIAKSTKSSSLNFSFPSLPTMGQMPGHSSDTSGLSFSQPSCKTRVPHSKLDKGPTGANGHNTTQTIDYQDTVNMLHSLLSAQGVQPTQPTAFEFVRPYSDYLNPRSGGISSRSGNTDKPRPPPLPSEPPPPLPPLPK
T1 sequence (Q9NYV4 686-1082): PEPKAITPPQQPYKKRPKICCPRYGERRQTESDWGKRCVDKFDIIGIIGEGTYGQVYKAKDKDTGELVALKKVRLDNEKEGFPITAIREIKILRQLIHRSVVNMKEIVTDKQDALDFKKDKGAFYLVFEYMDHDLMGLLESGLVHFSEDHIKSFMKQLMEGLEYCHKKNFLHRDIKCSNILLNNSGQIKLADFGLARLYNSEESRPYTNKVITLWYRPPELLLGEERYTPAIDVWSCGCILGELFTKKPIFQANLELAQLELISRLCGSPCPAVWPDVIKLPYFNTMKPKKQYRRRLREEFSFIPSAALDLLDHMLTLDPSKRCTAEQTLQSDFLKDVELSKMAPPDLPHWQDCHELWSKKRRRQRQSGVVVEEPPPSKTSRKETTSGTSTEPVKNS
T1 sequence (O75909 whole entry partner, the tested form may be a part): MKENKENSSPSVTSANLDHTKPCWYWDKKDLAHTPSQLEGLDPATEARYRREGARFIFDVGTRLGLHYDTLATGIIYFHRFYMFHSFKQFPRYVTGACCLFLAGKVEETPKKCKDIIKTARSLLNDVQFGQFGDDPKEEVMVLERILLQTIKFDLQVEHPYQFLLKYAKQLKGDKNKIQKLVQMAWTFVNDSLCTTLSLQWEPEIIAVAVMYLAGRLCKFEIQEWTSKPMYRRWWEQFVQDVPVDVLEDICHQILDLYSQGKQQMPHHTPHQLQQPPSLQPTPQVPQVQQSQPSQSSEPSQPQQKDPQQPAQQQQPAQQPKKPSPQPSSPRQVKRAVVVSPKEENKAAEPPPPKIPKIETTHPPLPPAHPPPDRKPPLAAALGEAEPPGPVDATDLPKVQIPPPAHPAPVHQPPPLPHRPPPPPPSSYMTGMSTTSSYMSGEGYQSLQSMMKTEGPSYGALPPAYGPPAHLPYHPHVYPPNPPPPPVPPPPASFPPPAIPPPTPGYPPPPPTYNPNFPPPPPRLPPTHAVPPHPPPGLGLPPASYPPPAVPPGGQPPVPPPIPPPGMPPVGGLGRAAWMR

Compound | IC50 [1] [nM] | IC50 (CDK2/Cyclin E1 complex) [nM] | IC50 (A673 cells) [nM] | IC50 (CDK9/Cyclin T1 complex) [nM] | IC50 [2] [nM] | IC50 (HCC70 cells) [nM]
FC(F)(F)c1cnc(NC2CCCNC2)nc1-c1n[nH]c2ccccc12 (centres unmarked) [Compound 103] | < 20 | 200 to 5000 | 20 to 200 | 200 to 5000 | 20 to 200 | < 100
Clc1cnc(NC2CCCNC2)nc1-c1cnn2ccccc12 (centres unmarked) [Compound 104] | 20 to 200 | 200 to 5000 | 20 to 200 | 200 to 5000 | 20 to 200 | 100 to 1000
Fc1cccc2c(-c3nc(NC4CCCNC4)ncc3Cl)c[nH]c12 (centres unmarked) [Compound 107] | 20 to 200 | 200 to 5000 | < 20 | 200 to 5000 | 20 to 200 | 100 to 1000
Fc1ccc2[nH]cc(-c3nc(NC4CCCNC4)ncc3Cl)c2c1 (centres unmarked) [Compound 109] | < 20 | 200 to 5000 | 20 to 200 | 200 to 5000 | 20 to 200 | 100 to 1000
Cc1cccc2c(-c3nc(NC4CCCNC4)ncc3Cl)c[nH]c12 (centres unmarked) [Compound 112] | < 20 | 200 to 5000 | < 20 | 200 to 5000 | 20 to 200 | < 100
Clc1cnc(NC2CCCNC2)nc1-c1c[nH]c2ncccc12 (centres unmarked) [Compound 118] | < 20 | 200 to 5000 | 20 to 200 | 200 to 5000 | 20 to 200 | < 100
CC(C)c1cnc(NC2CCCNC2)nc1-c1c[nH]c2ccccc12 (centres unmarked) [Compound 139] | 20 to 200 | ≥ 5000 | 200 to 5000 | ≥ 5000 | ≥ 5000 | 1000 to 5000
CS(=O)(=O)c1cccc2c(-c3nc(NC4CCCNC4)ncc3C(F)(F)F)c[nH]c12 (centres unmarked) [Compound 141] | < 20 | 200 to 5000 | < 20 | 200 to 5000 | 200 to 5000 | < 100
CCc1cnc(NC2CCCNC2)nc1-c1c[nH]c2c(F)cccc12 (centres unmarked) [Compound 144] | < 20 | 200 to 5000 | 20 to 200 | 200 to 5000 | 200 to 5000 | 100 to 1000
O=C1CCC(Nc2ncc(Cl)c(-c3c[nH]c4ccccc34)n2)CN1 (centres unmarked) [Compound 159] | 20 to 200 | 20 to 200 | 200 to 5000 | 200 to 5000 | 200 to 5000 | 1000 to 5000
N#Cc1ccc2c(-c3nc(NC4CCCNC4)ncc3Cl)c[nH]c2c1 (centres unmarked) [Compound 161] | < 20 | 200 to 5000 | < 20 | 200 to 5000 | 200 to 5000 | < 100
FC(F)(F)c1cnc(NC2CCCNC2)nc1-c1c[nH]c2cnc(Cl)cc12 (centres unmarked) [Compound 165] | < 20 | 200 to 5000 | 20 to 200 | 200 to 5000 | 200 to 5000 | 100 to 1000
Fc1cnc2[nH]cc(-c3nc(NC4CCCNC4)ncc3C(F)(F)F)c2c1 (centres unmarked) [Compound 166] | < 20 | 20 to 200 | < 20 | 200 to 5000 | 200 to 5000 | < 100
FC(F)(F)c1cnc(NC2CCCNC2)nc1-c1c[nH]c2c(-c3cn[nH]c3)cccc12 (centres unmarked) [Compound 170] | < 20 | 200 to 5000 | < 20 | 200 to 5000 | 20 to 200 | < 100
CNC(=O)c1cccc2c(-c3nc(N[C@H]4CCCNC4)ncc3C(F)(F)F)c[nH]c12 [Compound 173] | < 20 | 200 to 5000 | 20 to 200 | 200 to 5000 | 200 to 5000 | 100 to 1000
Cc1[nH]ncc1-c1cccc2c(-c3nc(N[C@@H]4CCCNC4)ncc3C(F)(F)F)c[nH]c12 [Compound 175] | < 20 | 200 to 5000 | < 20 | 20 to 200 | 200 to 5000 | 1000 to 5000
CN1CCN(c2cccc3c(-c4nc(NC5CCCNC5)ncc4C(F)(F)F)c[nH]c23)C1=O (centres unmarked) [Compound 176] | < 20 | 200 to 5000 | < 20 | 200 to 5000 | 200 to 5000 | 100 to 1000
FC(F)(F)c1cnc(NC2CCCNC2)nc1-c1c[nH]c2c(-c3ccnnc3)cccc12 (centres unmarked) [Compound 180] | < 20 | 20 to 200 | < 20 | 200 to 5000 | 20 to 200 | < 100

Compound | IC50 [1] [nM] | IC50 (CDK2/Cyclin E1 complex) [nM] | IC50 (A673 cells) [nM] | IC50 (CDK9/Cyclin T1 complex) [nM] | IC50 [2] [nM] | IC50 (HCC70 cells) [nM]
OC1CCC(c2cccc3c(-c4nc(NC5CCCNC5)ncc4C(F)(F)F)c[nH]c23)CC1 (centres unmarked) [Compound 185] | < 20 | 20 to 200 | < 20 | 200 to 5000 | 200 to 5000 | < 100
CC1(C)CCC(Nc2ncc(C(F)(F)F)c(-c3c[nH]c4ccccc34)n2)CN1 (centres unmarked) [Compound 190] | < 20 | 200 to 5000 | < 20 | 200 to 5000 | 200 to 5000 | 100 to 1000
CS(=O)(=O)c1ccc2c(-c3nc(NC4CCCNC4)ncc3C(F)(F)F)c[nH]c2c1 (centres unmarked) [Compound 199] | < 20 | 200 to 5000 | < 20 | 200 to 5000 | 200 to 5000 | 100 to 1000
CC1(O)CCN(C(=O)c2ccc3c(-c4nc(NC5CCCNC5)ncc4C(F)(F)F)c[nH]c3c2)C1 (centres unmarked) [Compound 221] | < 20 | ≥ 5000 | 200 to 5000 | ≥ 5000 | ≥ 5000 | 100 to 1000
CS(=O)(=O)c1c(C#N)ccc2c(-c3nc(N[C@H]4CCCNC4)ncc3C(F)(F)F)c[nH]c12 [Compound 232] | < 20 | 200 to 5000 | < 20 | 200 to 5000 | 200 to 5000 | < 100
CCc1cnc(NC2CCCNC2)nc1-c1c[nH]c2cc(C#N)ccc12 (centres unmarked) [Compound 246] | < 20 | ≥ 5000 | 200 to 5000 | ≥ 5000 | ≥ 5000 | 100 to 1000
O=C(c1ccc2c(-c3nc(N[C@H]4CCCNC4)ncc3C(F)(F)F)c[nH]c2c1)N1CC[C@@H](O)C1 [Compound 250] | < 20 | 200 to 5000 | 200 to 5000 | ≥ 5000 | 200 to 5000 | 1000 to 5000
N#Cc1ccc2c(-c3nc(NC4CCCNC4)ncc3C(F)(F)F)c[nH]c2n1 (centres unmarked) [Compound 251] | < 20 | 200 to 5000 | < 20 | 200 to 5000 | 200 to 5000 | < 100
N#Cc1ccc2c(-c3nc(N[C@@H]4CCCNC4)ncc3C(F)(F)F)c[nH]c2c1-c1ccnnc1 [Compound 261] | 20 to 200 | 200 to 5000 | < 20 | 200 to 5000 | 200 to 5000 | < 100
CCc1cnc(NC2CCCNC2)nc1-c1c[nH]c2c(S(C)(=O)=O)c(C#N)ccc12 (centres unmarked) [Compound 263] | < 20 | ≥ 5000 | 20 to 200 | ≥ 5000 | ≥ 5000 | 100 to 1000
FC(F)(F)c1cnc(NC2CNCC(c3nnc4ccccn34)C2)nc1-c1c[nH]c2ccccc12 (centres unmarked) [Compound 267] | 20 to 200 | 200 to 5000 | < 20 | 200 to 5000 | 200 to 5000 | < 100
Cn1cc(-c2nc(NC3CCCNC3)ncc2C(F)(F)F)c2ccc(C#N)nc21 (centres unmarked) [Compound 273] | – | – | 200 to 5000 | – | – | 1000 to 5000
CCc1cnc(NC2CCCNC2)nc1-c1n[nH]c2nc(C#N)ccc12 (centres unmarked) [Compound 277] | < 20 | 200 to 5000 | 20 to 200 | 200 to 5000 | 200 to 5000 | 100 to 1000
O=C(c1ccc2c(-c3nc(NC4CCCNC4)ncc3C(F)(F)F)c[nH]c2c1)N1CCCC1 (centres unmarked) [Compound 278] | 20 to 200 | 200 to 5000 | 20 to 200 | ≥ 5000 | 200 to 5000 | 100 to 1000
Cn1cc(-c2nc(NC3CCCNC3)ncc2C(F)(F)F)c2cccc(C#N)c21 (centres unmarked) [Compound 279] | 20 to 200 | ≥ 5000 | 200 to 5000 | ≥ 5000 | ≥ 5000 | 1000 to 5000
COCn1cc(-c2nc(NC3CCCNC3)ncc2C(F)(F)F)c2ccc(C#N)nc21 (centres unmarked) [Compound 283] | 200 to 5000 | ≥ 5000 | 200 to 5000 | ≥ 5000 | ≥ 5000 | 1000 to 5000
CCN1CCCC(Nc2ncc(C(F)(F)F)c(-c3c[nH]c4cc(C#N)ccc34)n2)C1 (centres unmarked) [Compound 284] | < 20 | 200 to 5000 | 20 to 200 | 200 to 5000 | 200 to 5000 | 100 to 1000

Source: US20230000870A1, “METHODS OF TREATING CANCER IN BIOMARKER-IDENTIFIED PATIENTS WITH INHIBITORS OF CYCLIN-DEPENDENT KINASE 7 (CDK7)” (Syros Pharmaceuticals, Inc., priority 2019, published 2023)
